The results in this text go back to patent US9776990B2, “Isoindolone derivatives” (AbbVie Inc., priority 2012, dated 2017).

For one test, the target named is BRD4 (BDI_K57-E168) (Homo sapiens (Human), UniProt O60885). Kind of test: TR-FRET bromodomain binding assay, BRD4 first bromodomain. To be noted: His-tagged BD1, 100 nM Alexa647 probe. How it is done:
(§1) A time-resolved fluorescence resonance energy transfer (TR-FRET) assay was used to determine the affinities of compounds of the Examples listed in Table 1 for each bromodomain of BRD4. His-tagged first (BD1: amino acids K57-E168) and second (BD2: amino acids E352-E168) bromodomains of BRD4 were expressed and purified. An Alexa647-labeled BET-inhibitor was used as the fluorescent probe in the assay.
(§2) Compound dilution series were prepared in DMSO via a 3-fold serial dilution from 2.5 mM to 42 nM. Compounds were then diluted 6:100 in assay buffer (20 mM Sodium Phosphate, pH 6.0, 50 mM NaCl, 1 mM EDTA, 0.01% Triton X-100, 1 mM DTT) to yield 3× working solutions. Six microliters (μL) of the working solution was then transferred to white, low-volume assay plates (Costar #3673). A 1.5× assay mixture containing His-tagged bromodomain, Europium-conjugated anti-His antibody (Invitrogen PV5596) and the Alexa-647-conjugated probe molecule was also prepared. Twelve μL of this solution were added to the assay plate to reach a final volume of 18 μL. The final concentration of 1× assay buffer contains 2% DMSO, 50 μM−0.85 nM compound, 8 nM bromodomain, 1 nM antibody and 100 or 30 nM probe (for BDI or BDII, respectively). After a one-hour incubation at room temperature, TR-FRET ratios were determined using an Envision multilabel plate reader (Ex 340, Em 495/520).
(§3) TR-FRET data were normalized to the means of 24 no-compound controls (“high”) and 8 controls containing 1 μM un-labeled probe (“low”). Percent inhibition was plotted as a function of compound concentration and the data were fit with the 4 parameter logistic equation to obtain IC50s Inhibition constants (Ki) were calculated from the IC50s, probe Kd and probe concentration. Typical Z′ values were between 0.65 and 0.75. The minimum significant ratio was determined to evaluate assay reproducibility (Eastwood et al., (2006) J Biomol Screen, 11: 253-261). The MSR was determined to be 2.03 for BDI and 1.93 for BDII, and a moving MSR (last six run MSR overtime) for both BDI and BDII was typically <3.
In general terms: In TR-FRET formats the signal depends on donor and acceptor labels being close together.

The next test has as its target BRD4 (BDII_E352-M457) (Homo sapiens (Human), UniProt O60885). Kind of test: TR-FRET bromodomain binding assay, BRD4 second bromodomain. To be noted: His-tagged BD2, 30 nM Alexa647 probe. How it is done:
as §1, §2, §3

Test [1] has as its system breast cancer cell line MX-1. In words: MX-1 cell line proliferation assay (3-day, Cell Titer Glo). The test is classed as cell-based, human. To be noted: Homo sapiens, MX1, MX-1 cells, 72 hours, read-out: Cellular proliferation: EC50. The method, then:
The impact of compounds of the Examples on cancer cell proliferation was determined using the breast cancer cell line MX-1 (ATCC) in a 3-day proliferation assay. MX-1 cells were maintained in RPMI supplemented with 10% FBS at 37 C.° and an atmosphere of 5% CO2. For compound testing, MX-1 cells were plated in 96-well black bottom plates at a density of 5000 cells/well in 90 μl of culture media and incubated at 37° overnight to allow cell adhesion and spreading. Compound dilution series were prepared in DMSO via a 3-fold serial dilution from 3 mM to 0.1 μM. The DMSO dilution series were then diluted 1:100 in phosphate buffered saline, and 10 μL of the resulted solution were added to the appropriate wells of the MX-1 cell plate. The final compound concentrations in the wells were 3, 1, 0.3, 0.1, 0.03, 0.01, 0.003, 0.001, 0.0003 and 0.0001 μM.
Luminescence readings from the Cell Titer Glo assay were normalized to the DMSO treated cells and analyzed using the GraphPad Prism software with sigmoidal curve fitting to obtain EC50s. The minimum significant ratio (MSR) was determined to evaluate assay reproducibility (Eastwood et al., (2006) J Biomol Screen, 11: 253-261).
(Cellular ATP, detected with luciferase, serves as a proxy for viable cell number.)

Take `Cc1[nH]c(-c2ccccc2)c2c1C(=O)CCC2` [Example 1, 3-methyl-1-phenyl-2,5,6,7-tetrahydro-4H-isoindol-4-one]: the inhibitory constant (Ki) – broadly, a dissociation constant, usually derived from enzyme kinetics or from competition with a known ligand – on BRD4 (BDI_K57-E168) amounted to 3.68 µM; at BRD4 (BDII_E352-M457) it was 3.07 µM. Further, in test [1], the EC50 turned out to be 3.4 µM.
On to `Cc1[nH]c(-c2ccc(S(N)(=O)=O)cc2)c2c1C(=O)CCC2` [Example 5, 4-(3-methyl-4-oxo-4,5,6,7-tetrahydro-2H-isoindol-1-yl)benzenesulfonamide], for which the Ki on BRD4 (BDI_K57-E168) amounted to 1.4 µM; at BRD4 (BDII_E352-M457) it was 2.03 µM. Besides, the EC50 in test [1] was 3.7 µM.
Take `COc1cc(-c2[nH]c(C)c3c2CCCC3=O)cc(OC)c1OC` [Example 7, 3-methyl-1-(3,4,5-trimethoxyphenyl)-2,5,6,7-tetrahydro-4H-isoindol-4-one]: the Ki on BRD4 (BDI_K57-E168) stood at 0.261 µM; on BRD4 (BDII_E352-M457), 0.805 µM. The EC50 in test [1] was 0.676 µM.
The corresponding values for `Cc1[nH]c(-c2ccc(S(C)(=O)=O)cc2)c2c1C(=O)CCC2` [Example 8, 3-methyl-1-[4-(methylsulfonyl)phenyl]-2,5,6,7-tetrahydro-4H-isoindol-4-one] are 1.43 µM, 3.82 µM and 2.5 µM.
The corresponding values for `Cc1[nH]c(-c2cccc(C(N)=O)c2)c2c1C(=O)CCC2` [Example 9, 3-(3-methyl-4-oxo-4,5,6,7-tetrahydro-2H-isoindol-1-yl)benzamide] are 0.961 µM, 3.1 µM and 2.75 µM.
The corresponding values for `Cc1[nH]c(-c2cccc3[nH]ccc23)c2c1C(=O)CCC2` [Example 10, 1-(1H-indol-4-yl)-3-methyl-2,5,6,7-tetrahydro-4H-isoindol-4-one] are 1.79 µM, 4.06 µM and 1.23 µM.
On to `Cc1[nH]c(-c2ccccc2OCc2ccccc2)c2c1C(=O)CCC2` [Example 18, 1-[2-(benzyloxy)phenyl]-3-methyl-2,5,6,7-tetrahydro-4H-isoindol-4-one], for which the Ki at BRD4 (BDI_K57-E168) amounted to 0.943 µM; on BRD4 (BDII_E352-M457), 2.03 µM. Also, the EC50 in test [1] is 1.23 µM.
`Cc1[nH]c(-c2cccc3ccccc23)c2c1C(=O)CCC2` [Example 19, 3-methyl-1-(naphthalen-1-yl)-2,5,6,7-tetrahydro-4H-isoindol-4-one]: the EC50 in test [1] came to 3.18 µM.
In the case of `Cc1[nH]c(-c2ccccc2OCC2CCOC2)c2c1C(=O)CCC2` (stereo not drawn) [Example 29, 3-methyl-1-[2-(tetrahydrofuran-3-ylmethoxy)phenyl]-2,5,6,7-tetrahydro-4H-isoindol-4-one], the Ki on BRD4 (BDI_K57-E168) was 0.315 µM; on BRD4 (BDII_E352-M457), 2.92 µM. In addition, the EC50 in test [1] is greater than 3 µM.
In the same order, the values of `Cc1[nH]c(-c2ccccc2OCC2CCCO2)c2c1C(=O)CCC2` (stereo not drawn) [Example 31, 3-methyl-1-[2-(tetrahydrofuran-2-ylmethoxy)phenyl]-2,5,6,7-tetrahydro-4H-isoindol-4-one] are 0.765 µM, 4.68 µM and greater than 3 µM.
As to `Cc1[nH]c(-c2ccccc2OCC2CCOCC2)c2c1C(=O)CCC2` [Example 32, 3-methyl-1-[2-(tetrahydro-2H-pyran-4-ylmethoxy)phenyl]-2,5,6,7-tetrahydro-4H-isoindol-4-one], the Ki at BRD4 (BDI_K57-E168) came out at 0.202 µM; at BRD4 (BDII_E352-M457) it was 1.94 µM. For the same compound, the EC50 in test [1] stood at 1.88 µM.
With `Cc1[nH]c(-c2ccccc2OCCN2CCOCC2)c2c1C(=O)CCC2` [Example 33, 3-methyl-1-{2-[2-(morpholin-4-yl)ethoxy]phenyl}-2,5,6,7-tetrahydro-4H-isoindol-4-one], the Ki on BRD4 (BDI_K57-E168) is 1.04 µM; on BRD4 (BDII_E352-M457) it was 8.16 µM. The EC50 in test [1] is greater than 3 µM.
The corresponding values for `Cc1[nH]c(-c2ccccc2OCc2ccccn2)c2c1C(=O)CCC2` [Example 34, 3-methyl-1-[2-(pyridin-2-ylmethoxy)phenyl]-2,5,6,7-tetrahydro-4H-isoindol-4-one] are 1.35 µM, 2.62 µM and greater than 3 µM.
As to `Cc1[nH]c(-c2ccccc2OCc2cccnc2)c2c1C(=O)CCC2` [Example 37, 3-methyl-1-[2-(pyridin-3-ylmethoxy)phenyl]-2,5,6,7-tetrahydro-4H-isoindol-4-one], the figures for the Ki on BRD4 (BDI_K57-E168) and on BRD4 (BDII_E352-M457) were 0.526 µM and 4.14 µM, respectively. In addition, the EC50 in test [1] was greater than 3 µM.
The corresponding values for `Cc1[nH]c(-c2cc(N)ccc2Oc2ccccc2)c2c1C(=O)CCC2` [Example 39, 1-(5-amino-2-phenoxyphenyl)-3-methyl-2,5,6,7-tetrahydro-4H-isoindol-4-one] are 0.148 µM, 0.365 µM and 0.232 µM.
In the same order, the values of `Cc1c2c(c(-c3cc(NS(C)(=O)=O)ccc3Oc3ccccc3)n1C)CCCC2=O` [Example 41, N-[3-(2,3-dimethyl-4-oxo-4,5,6,7-tetrahydro-2H-isoindol-1-yl)-4-phenoxyphenyl]methanesulfonamide] are 0.161 µM, 0.216 µM and 0.37 µM.
The corresponding values for `CC(=O)Nc1ccc(Oc2ccccc2)c(-c2c3c(c(C)n2C)C(=O)CCC3)c1` [Example 42, N-[3-(2,3-dimethyl-4-oxo-4,5,6,7-tetrahydro-2H-isoindol-1-yl)-4-phenoxyphenyl]acetamide] are 0.569 µM, 1.09 µM and greater than 3 µM.
Consider `Cc1[nH]c(-c2cc(N)ccc2Sc2ccccc2)c2c1C(=O)CCC2` [Example 43, 1-[5-amino-2-(phenylsulfanyl)phenyl]-3-methyl-2,5,6,7-tetrahydro-4H-isoindol-4-one], for which the inhibition constant (Ki) on BRD4 (BDI_K57-E168) worked out at 1.82 µM; on BRD4 (BDII_E352-M457) it was 0.568 µM. In addition, in test [1], the EC50 was greater than 3 µM.
With `Cc1[nH]c(-c2ccccc2N2CCOCC2)c2c1C(=O)CC(C)(C)C2` [Example 61, 3,6,6-trimethyl-1-[2-(morpholin-4-yl)phenyl]-2,5,6,7-tetrahydro-4H-isoindol-4-one], the inhibition constant (Ki) turned out to be 2.2 µM at BRD4 (BDI_K57-E168) and 1.68 µM on BRD4 (BDII_E352-M457).
Take `Cc1[nH]c(-c2ccccc2OCc2ccccc2)c2c1C(=O)CC(C)(C)C2` [Example 62, 1-[2-(benzyloxy)phenyl]-3,6,6-trimethyl-2,5,6,7-tetrahydro-4H-isoindol-4-one]: the Ki was 1.5 µM on BRD4 (BDI_K57-E168) and 1.75 µM on BRD4 (BDII_E352-M457).
Turning to `Cc1[nH]c(-c2ccccc2Oc2ccccc2)c2c1C(=O)CC(C)(C)C2` [Example 63, 3,6,6-trimethyl-1-(2-phenoxyphenyl)-2,5,6,7-tetrahydro-4H-isoindol-4-one], the Ki is 0.786 µM at BRD4 (BDI_K57-E168) and 1.03 µM on BRD4 (BDII_E352-M457).
Consider `Cc1[nH]c(-c2cc(N)ccc2Oc2ccccc2)c2c1C(=O)CC(C)C2` (stereo not drawn) [Example 66, 1-(5-amino-2-phenoxyphenyl)-3,6-dimethyl-2,5,6,7-tetrahydro-4H-isoindol-4-one], for which the Ki on BRD4 (BDI_K57-E168) worked out at 0.058 µM; at BRD4 (BDII_E352-M457), 0.069 µM.
The corresponding values for `Cc1[nH]c(-c2ccccc2Oc2ccccc2)c2c1C(=O)CC(C(C)C)C2` (stereo not drawn) [Example 70, 3-methyl-1-(2-phenoxyphenyl)-6-(propan-2-yl)-2,5,6,7-tetrahydro-4H-isoindol-4-one] are 1.2 µM and 2.22 µM.
In the same order, the values of `Cc1[nH]c(-c2cc(NS(C)(=O)=O)ccc2Oc2ccccc2)c2c1C(=O)CC(c1ccccc1)C2` (stereo not drawn) [Example 72, N-[3-(3-methyl-4-oxo-6-phenyl-4,5,6,7-tetrahydro-2H-isoindol-1-yl)-4-phenoxyphenyl]methanesulfonamide] are 7.28 µM and 22.2 µM.
In the same order, the values of `Cc1[nH]c(-c2cc(S(C)(=O)=O)ccc2OCC2CC2)c2c1C(=O)CCC2` [Example 73, 1-[2-(cyclopropylmethoxy)-5-(methylsulfonyl)phenyl]-3-methyl-2,5,6,7-tetrahydro-4H-isoindol-4-one] are 0.034 µM and 0.461 µM.
